Test results from patent publication US8841324B2, “Heterocyclic compounds as autotaxin inhibitors” (Merck Patent GmbH, priority 2009, dated 2014).

Each molecule was assayed against T1, recombinant autotaxin (Homo sapiens, UniProt Q13822) (assay: Autotaxin test (enzyme test), Amplex Red fluorescence readout). Settings: Autotaxin inhibition (enzyme test); substrate LPC 75 μM, 37° C. for 90 min.
T1 construct: made in house; host or cells: Hi5 insect cells (baculovirus)
Format: biochemical
Procedure: Pharmacological Data Autotaxin Inhibition (Enzyme Test)
Autotaxin Test (Enzyme Test)
The autotaxin activity is measured indirectly using Amplex Red reagent. Amplex Red is measured here as fluorogenic indicator for the H2O2 formed. In detail, autotaxin converts the substrate lysophosphatidylcholine (LPC) into phosphocholine and lysophosphatidylic acid (LPA). After this reaction, the phosphocholine is reacted with alkaline phosphatase to give inorganic phosphate and choline. In the next step, choline is oxidised by choline oxidase to give betaine, with formation of H2O2. H2O2 reacts with Amplex Red reagent in the presence of peroxidase (horseradish peroxidase) in a 1:1 stoichiometry and forms the highly fluorescent resorufin. The fluorescence is measured in a reaction-dependent kinetic mode in order that fluorescent signals from possible other fluorescent substances which are not involved in the reaction can be corrected out.
1.5 μl of a standard solution or of the test substances (substances with the name A(n)) in individual concentrations dissolved in 20 mM Hepes pH 7.2 with a maximum of 7.7% of DMSO are pre-incubated together with 10 μl (16 ng) of highly purified recombinant autotaxin in a black microtitre plate provided with 384 wells at 22° C. for 30 min. The reaction is then initiated by addition of 5 μl of L-α-lysophosphatidylcholine (LPC), where the final concentration of LPC is 75 μM. The mixture is incubated at 37° C. for 90 min. After the incubation, Amplex Red reagent, peroxidase (horseradish peroxidase) and choline oxidase is added, and the fluorescence is immediately measured at 612 nm with excitation of 485 nm in a “Tecan Ultra multimode” reader. The activity of autotaxin is calculated indirectly via detection of the H2O2 formed.
• Microtitre plate: PS microplate, 384 wells, small volume, black Corning, Cat#3677 • Protein: recombinant autotaxin (Baculovirale Hi5 Expression) • Substrate: L-α-lysophosphatidylcholine (chicken egg)); Avanti Polar Lipids #830071P • Standard: C14 LPA, Avanti Polar Lipids, Cat#857120P • Detection reagent: Amplex Red reagent; Invitrogen # A12222; dissolved in 1.923 ml of DMSO peroxidase type VI-A (horseradish) from Sigma # P6782; dissolved in 7.45 ml of test buffer, choline oxidase; Sigma # C5896; dissolved in 2.47 ml of test buffer • Detection reagent mix: 1:100 dilution of Amplex Red reagent in test buffer • Test buffer: 200 mM Tris HCl, Merck, Cat #1.08219, pH 7.9, 0.1% of BSA, lipid-free, Roche Cat#775835

Compound | IC50 [nM]
O=C(CNC1CCN(C(=O)OCc2cc(Cl)cc(Cl)c2)CC1)Nc1ccc2[nH]c(=O)oc2c1 [Compound 11, 3,5-dichlorobenzyl 4-{[(2-oxo-2,3-dihydrobenzoxazol-6-ylcarbamoyl)methyl]amino}piperidine-1-carboxylate] | 100 to 1000
O=C(OCc1cc(Cl)cc(Cl)c1)N1CCN(CCC(O)c2ccc3[nH]c(=O)oc3c2)CC1 (stereo not drawn) [Compound 13, 3,5-dichlorobenzyl 4-[3-hydroxy-3-(2-oxo-2,3-dihydrobenzoxazol-6-yl)propyl]piperazine-1-carboxylate] | 100 to 1000
O=C(OCc1ccc(Cl)cc1)N1CCN(CCC(F)(F)c2ccc3[nH]c(=O)oc3c2)CC1 [Compound 17, 4-chlorobenzyl 4-[3,3-difluoro-3-(2-oxo-2,3-dihydrobenzoxazol-6-yl)propyl]piperazine-1-carboxylate] | 100 to 1000
O=C(OCc1cc(Cl)cc(Cl)c1)N1CCN(CCN2CCC(c3ccc4[nH]c(=O)oc4c3)=N2)CC1 [Compound 21, 3,5-dichlorobenzyl 4-{2-[3-(2-oxo-2,3-dihydrobenzoxazol-6-yl)-4,5-dihydropyrazol-1-yl]ethyl}piperazine-1-carboxylate] | > 1000
O=C(Cc1ccc2[nH]nnc2c1)N1CCN(C(=O)OCc2ccc(Cl)cc2)CC1 [Compound 24, 4-chlorobenzyl 4-(2-1H-benzotriazol-5-ylacetyl)piperazine-1-carboxylate] | > 1000
O=C(CN1CCN(C(=O)CCOc2ccc(Cl)cc2)CC1)c1ccc2[nH]c(=O)oc2c1 [Compound 27, 6-(2-{4-[3-(4-chlorophenoxy)propionyl]piperazin-1-yl}acetyl)-3H-benzoxazol-2-one] | > 1000
O=C(CCNC(=O)N1CCN(C(=O)OCc2ccc(Cl)cc2)CC1)Nc1ccc2[nH]nnc2c1 [Compound 33, 4-chlorobenzyl 4-[2-(1H-benzotriazol-5-ylcarbamoyl)ethyl-carbamoyl]piperazine-1-carboxylate] | > 1000
O=C(CC(=O)NC1CCN(C(=O)OCc2ccc(Cl)cc2)CC1)Nc1ccc2[nH]nnc2c1 [Compound 39, 4-chlorobenzyl 4-[2-(1H-benzotriazol-5-ylcarbamoyl)acetylamino]piperidine-1-carboxylate] | 100 to 1000
O=C(NCCN1CCN(C(=O)OCc2cc(Cl)cc(Cl)c2)CC1)c1ccc2[nH]nnc2c1 [Compound A1, 3,5-Dichlorobenzyl 4-{2-[(1H-benzotriazole-5-carbonyl)amino]ethyl}piperazine-1-carboxylate] | 100 to 1000
O=C(NCCN1CCN(C(=O)OCc2ccc(C(F)(F)F)cc2)CC1)c1ccc2[nH]nnc2c1 [Compound A2, 4-Trifluoromethylbenzyl 4-{2-[(1H-benzotriazole-5-carbonyl)amino]ethyl}piperazine-1-carboxylate] | > 1000
O=C(NCCN1CCN(C(=O)OCc2ccc(Cl)cc2F)CC1)c1ccc2[nH]nnc2c1 [Compound A3, 4-Chloro-2-fluorobenzyl 4-{2-[(1H-benzotriazole-5-carbonyl)amino]ethyl}piperazine-1-carboxylate] | > 1000
O=C(CN1CCN(C(=O)OCc2ccc(Cl)cc2)CC1)Nc1ccc2[nH]c(=O)oc2c1 [Compound A8, 4-Chlorobenzyl 4-[(2-oxo-2,3-dihydrobenzoxazol-6-ylcarbamoyl)methyl]piperazine-1-carboxylate] | > 1000
O=C(Nc1ccc2[nH]c(=O)oc2c1)C(c1ccccc1)N1CCN(C(=O)OCc2ccc(Cl)cc2)CC1 (stereo not drawn) [Compound A10, 4-Chlorobenzyl 4-[(2-oxo-2,3-dihydrobenzoxazol-6-ylcarbamoyl)phenylmethyl]piperazine-l-carboxylate] | > 1000
O=C(CCN1CCN(C(=O)OCc2ccc(Cl)cc2)CC1)Nc1ccc2[nH]c(=O)oc2c1 [Compound A13, 4-Chlorobenzyl 4-[2-(2-oxo-2,3-dihydrobenzoxazol-6-ylcarbamoyl)ethyl]piperazine-1-carboxylate] | > 1000
O=C(CCCN1CCN(C(=O)OCc2ccc(Cl)cc2)CC1)Nc1ccc2[nH]nnc2c1 [Compound A14, 4-Chlorobenzyl 4-[3-(1H-benzotriazol-5-yl-carbamoyl)propyl]piperazine-1-carboxylate] | > 1000
O=C(CN1CCC(NC(=O)OCc2cc(Cl)cc(Cl)c2)C1)Nc1ccc2[nH]nnc2c1 (stereo not drawn) [Compound A16, 3,5-Dichlorobenzyl {1-[(1H-benzotriazol-5-yl-carbamoyl)methyl]pyrrolidin-3-yl}crbamate] | > 1000
O=C(NC1[C@H]2CN(C(=O)OCc3cc(Cl)cc(Cl)c3)C[C@@H]12)c1ccc2nn[nH]c2c1 (stereo partly drawn) [Compound A17, 3,5-Dichlorobenzyl (1R,5S)-6-[(3H-benzotriazole-5-carbonyl)amino]-3-azabicyclo[3.1.0]hexane-3-carboxylate] | > 1000
O=C(OCc1cc(Cl)cc(Cl)c1)N1CCN(CC(O)c2ccc3[nH]c(=O)oc3c2)CC1 (stereo not drawn) [Compound A18, 3,5-Dichlorobenzyl 4-[2-hydroxy-2-(2-oxo-2,3-dihydrobenzoxazol-6-yl)ethyl]piperazine-1-carboxylate] | > 1000
